# Patent publication US9273043B2, “TRPV1 antagonists including dihydroxy substituent and uses thereof” (Purdue Pharma L.P., priority 2011, dated 2016)
# Marks after values point to notes of the source that are not given here.
# System: MIA-induced osteoarthritis pain
# Test: MIA-induced osteoarthritis model, grip force test
# Type: in vivo, rat
# Conditions: rat MIA, grip force
# Text: Osteoarthritis Pain: To assess the actions of a Compound of Formula (I) for the treatment or prevention of osteoarthritis pain, the rat monosodium iodo-acetate (MIA, i.e., sodium 2-iodoacetate) induced osteoarthritis model was used. Intra-articular injection of MIA causes joint degeneration characterized by osteolysis and swelling, with displacement of the patella, and reductions in bone mineral content and bone mineral density (Pomonis et al., “Development and pharmacological characterization of a rat model of osteoarthritis pain,” Pain 114: 339-346 (2005)). Under isoflurane anaesthesia, an intra-articular injection of 2 mg of MIA (Sigma-Aldrich) in 50 μl of saline was administered through the infrapatellar ligament of the knee joint of the right hind leg of the male, 6 week old Crl:CD(SD) rats. Control rats received an intra-articular injection of 50 μl of saline into the knee joint of the right hind leg. The left knee joint of all rats was untreated. Two weeks after MIA injection, rats were assessed for osteoarthritis pain related-behaviors immediately prior to and 1, 3, 5, 7, and 24 hours after oral drug-in-vehicle administration (for day 1) by determining their weight-bearing capabilities, via the weight bearing difference (WBD) test, and their gripping capabilities, via the grip force test, each as described below. Thus, in the assessment for osteoarthritis pain relief through gripping capability determinations, the 24 hour time point was the start of the next day when drug-in-vehicle was again orally administered (24 hours after the prior administration) for certain dosages. On days 2, 3, and 4, gripping capability response was determined 3 and 24 hours thereafter.
# The grip force (GF) of the hind legs was assessed using a Animal Grip Strength System (San Diego Instruments, San Diego, Calif.). Rats were gently restrained and allowed to grasp the wire mesh strain gauge with their hind legs. The animals were then moved in a rostral-caudal direction until they let go of the gauge. The force (in g) at which the rat let go was recorded. Each animal was tested twice at approximately 3-10 minute intervals at each time point and the average of the two readings was used for the GF in data analysis.
# Grip force, normalized to account for the weight of each animal, was expressed as “GF/B”, i.e., the ratio of GF to body weight, where GF is the grip force in grams and B is the body weight of the animal in kg. The “% GFR”, i.e., the percentage reversal of the (normalized) grip force impediment occurring post-MIA injection, was determined for each dosage at each time point using the following formula:
# [formula] where (GF/B)Drug is the GF/B determined at each post-oral-administration time-point for each dose of each substance administered to MIA-injected animals, (GF/B)Vehicle is the GF/B determined at each post-oral-administration time-point for the vehicle control administered to MIA-injected animals, and (GF/B)Control Rat is the GF/B determined for control rats (saline-injected animals receiving orally-administered vehicle only). With the exception of the controls (i.e., celecoxib, vehicle) where the student's t-test was used, Dunnett's test was conducted for the % GFR. In either instance, values with p <0.05 were considered to be statistically significant.
smiles,measurement,setting,value
CC1CN(c2ncc(C(O)CO)cc2F)CCN1C(=O)Nc1nc2cc(F)ccc2s1.O=C(O)C=CC(=O)O (stereo not drawn),% GFR [mean],"oral 0.3 mg/kg, 1 h (day 1)",12.8%
same,% GFR [mean],"oral 0.3 mg/kg, 3 h (day 1)",21.1* %
same,% GFR [mean],"oral 0.3 mg/kg, 3 h (day 1), listed as product prepared with Compound A155(a) and fumaric acid",21.1%
same,% GFR [mean],"oral 0.3 mg/kg, 5 h (day 1)",17.3* %
same,% GFR [mean],"oral 0.3 mg/kg, 7 h (day 1)",3.7%
same,% GFR [mean],"oral 0.3 mg/kg, 24 h after day 1 dose (0 hrs day 2)",4.0%
same,% GFR [mean],"oral 1 mg/kg once daily, 3 h (day 2)",43.1** %
same,% GFR [mean],"oral 1 mg/kg once daily, 3 h (day 2), listed as product prepared with Compound A155(a) and fumaric acid",43.1%
same,% GFR [mean],"oral 1 mg/kg once daily, 3 h (day 3)",38.0** %
same,% GFR [mean],"oral 1 mg/kg once daily, 3 h (day 3), listed as product prepared with Compound A155(a) and fumaric acid",38.0%
same,% GFR [mean],"oral 1 mg/kg once daily, 3 h (day 4)",40.1** %
same,% GFR [mean],"oral 1 mg/kg once daily, 3 h (day 4), listed as product prepared with Compound A155(a) and fumaric acid",40.1%
same,% GFR [mean],"oral 1 mg/kg once daily, 24 h after day 2 dose (0 hrs day 3)",15.4** %
same,% GFR [mean],"oral 1 mg/kg once daily, 24 h after day 3 dose (0 hrs day 4)",26.1** %
same,% GFR [mean],"oral 1 mg/kg once daily, 24 h after day 4 dose (0 hrs day 5)",26.4** %
same,% GFR [mean],"oral 1 mg/kg, 1 h (day 1)",29.7** %
same,% GFR [mean],"oral 1 mg/kg, 3 h (day 1)",45.2** %
same,% GFR [mean],"oral 1 mg/kg, 3 h (day 1), listed as product prepared with Compound A155(a) and fumaric acid",45.2%
same,% GFR [mean],"oral 1 mg/kg, 5 h (day 1)",37.6** %
same,% GFR [mean],"oral 1 mg/kg, 7 h (day 1)",16.5* %
same,% GFR [mean],"oral 1 mg/kg, 24 h after day 1 dose (0 hrs day 2)",3.1%
same,% GFR [mean],"oral 3 mg/kg once daily, 3 h (day 2)",50.5** %
same,% GFR [mean],"oral 3 mg/kg once daily, 3 h (day 2), listed as product prepared with Compound A155(a) and fumaric acid",50.5%
same,% GFR [mean],"oral 3 mg/kg once daily, 3 h (day 3)",45.0** %
same,% GFR [mean],"oral 3 mg/kg once daily, 3 h (day 3), listed as product prepared with Compound A155(a) and fumaric acid",45.0%
same,% GFR [mean],"oral 3 mg/kg once daily, 3 h (day 4)",45.6** %
same,% GFR [mean],"oral 3 mg/kg once daily, 3 h (day 4), listed as product prepared with Compound A155(a) and fumaric acid",45.6%
same,% GFR [mean],"oral 3 mg/kg once daily, 24 h after day 2 dose (0 hrs day 3)",22.0** %
same,% GFR [mean],"oral 3 mg/kg once daily, 24 h after day 3 dose (0 hrs day 4)",32.0** %
same,% GFR [mean],"oral 3 mg/kg once daily, 24 h after day 4 dose (0 hrs day 5)",28.9** %
same,% GFR [mean],"oral 3 mg/kg, 1 h (day 1)",36.5** %
same,% GFR [mean],"oral 3 mg/kg, 3 h (day 1)",53.6** %
same,% GFR [mean],"oral 3 mg/kg, 3 h (day 1), listed as product prepared with Compound A155(a) and fumaric acid",53.6%
same,% GFR [mean],"oral 3 mg/kg, 5 h (day 1)",44.3** %
same,% GFR [mean],"oral 3 mg/kg, 7 h (day 1)",19.9** %
same,% GFR [mean],"oral 3 mg/kg, 24 h after day 1 dose (0 hrs day 2)",−2.2%
same,% GFR [mean],"oral 10 mg/kg once daily, 3 h (day 2)",57.5** %
same,% GFR [mean],"oral 10 mg/kg once daily, 3 h (day 2), listed as product prepared with Compound A155(a) and fumaric acid",57.5%
same,% GFR [mean],"oral 10 mg/kg once daily, 3 h (day 3)",51.6** %
same,% GFR [mean],"oral 10 mg/kg once daily, 3 h (day 3), listed as product prepared with Compound A155(a) and fumaric acid",51.6%
same,% GFR [mean],"oral 10 mg/kg once daily, 3 h (day 4)",52.2** %
same,% GFR [mean],"oral 10 mg/kg once daily, 3 h (day 4), listed as product prepared with Compound A155(a) and fumaric acid",52.2%
same,% GFR [mean],"oral 10 mg/kg once daily, 24 h after day 2 dose (0 hrs day 3)",32.7** %
same,% GFR [mean],"oral 10 mg/kg once daily, 24 h after day 3 dose (0 hrs day 4)",33.4** %
same,% GFR [mean],"oral 10 mg/kg once daily, 24 h after day 4 dose (0 hrs day 5)",32.0** %
same,% GFR [mean],"oral 10 mg/kg, 1 h (day 1)",35.9** %
same,% GFR [mean],"oral 10 mg/kg, 3 h (day 1)",55.6** %
same,% GFR [mean],"oral 10 mg/kg, 3 h (day 1), listed as product prepared with Compound A155(a) and fumaric acid",55.6%
same,% GFR [mean],"oral 10 mg/kg, 5 h (day 1)",45.9** %
same,% GFR [mean],"oral 10 mg/kg, 7 h (day 1)",22.8** %
same,% GFR [mean],"oral 10 mg/kg, 24 h after day 1 dose (0 hrs day 2)",−5.7%
same,% GFR [mean],"oral 20 mg/kg, 1 h (day 1)",49.0** %
same,% GFR [mean],"oral 20 mg/kg, 3 h (day 1)",65.1** %
same,% GFR [mean],"oral 20 mg/kg, 3 h (day 1), listed as product prepared with Compound A155(a) and fumaric acid",65.1%
same,% GFR [mean],"oral 20 mg/kg, 5 h (day 1)",50.3** %
same,% GFR [mean],"oral 20 mg/kg, 7 h (day 1)",29.3** %
same,% GFR [mean],"oral 20 mg/kg, 24 h after day 1 dose (0 hrs day 2)",−1.3%
